Test results as given in patent publication US8383615B2, “Azetidine 2-carboxamide derivatives which modulate the CB2 receptor” (Boehringer Ingelheim International GmbH, priority 2009, dated 2013).
Like-named read-outs stand apart in the source and are kept apart here.

Target: T1, human CB2R (Homo sapiens, UniProt P34972)
T1 construct: host or cells: CHO cells
Experiment: CB2R mediated modulation of cAMP synthesis
Type: cell-based
Conditions: CHO cells expressing human CB2R, inhibition of forskolin-stimulated cAMP synthesis, agonist
Description: B. CB2R Mediated Modulation of cAMP Synthesis:
Compounds of the invention were evaluated for their CB2 agonist or inverse agonistic activity in accordance with the following experimental method.
CHO cells expressing human CB2R (Euroscreen) were plated at a density of 5000 cells per well in 384 well plates and incubated overnight at 37° C. After removing the media, the cells were treated with test compounds diluted in stimulation buffer containing 1 mM IBMX, 0.25% BSA and 10 uM Forskolin. The assay was incubated for 30 minutes at 37° C. Cells were lysed and the cAMP concentration was measured using DiscoverX-XS cAMP kit, following the manufacturer's protocol. In this setting, agonists will decrease forskolin induced production of cAMP while inverse agonists will further increase forskolin induced production of cAMP. EC50 of agonists were calculated as follows. The maximal amount of cAMP produced by forskolin compared to the level of cAMP inhibited by 1 uM CP55940 is defined as 100%. The EC50 value of each test compound was determined as the concentration at which 50% of the forskolin-stimulated cAMP synthesis was inhibited. Data was analyzed using a four-parameter logistic model. (Model 205 of XLfit 4.0).

T1 sequence (P34972 whole entry): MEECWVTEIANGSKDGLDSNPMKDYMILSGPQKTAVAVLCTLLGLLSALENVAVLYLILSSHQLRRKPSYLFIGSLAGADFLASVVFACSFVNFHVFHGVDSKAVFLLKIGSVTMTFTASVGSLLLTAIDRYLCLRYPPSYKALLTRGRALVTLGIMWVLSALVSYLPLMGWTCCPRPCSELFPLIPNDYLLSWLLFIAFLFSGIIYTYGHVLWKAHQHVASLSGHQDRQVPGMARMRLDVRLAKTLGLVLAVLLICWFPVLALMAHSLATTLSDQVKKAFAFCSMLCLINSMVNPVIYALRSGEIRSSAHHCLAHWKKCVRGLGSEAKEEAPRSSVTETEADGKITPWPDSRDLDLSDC

SMILES | EC50 (CB2 EC50 (nM)) [nM] | EC50 (read-out: CB2 EC50) [nM]
CC(C)(C)c1coc(NC(=O)[C@@H]2CCN2C2CCOCC2)n1 | 206 | –
O=C(Nc1nc(-c2ccccc2)cs1)[C@@H]1CCN1C1CCOCC1 | – | 465
O=C(Nc1ccc(C(F)(F)F)c(F)c1)[C@@H]1CCN1C1CCOCC1 | – | 371
O=C(Nc1nc2cc(Cl)ccc2s1)[C@@H]1CCN1C1CCOCC1 | 86 | –
O=C(Nc1nc(C2CCCCC2)cs1)[C@@H]1CCN1C1CCOCC1 | 56 | –
CC(C)(C)c1cc(NC(=O)[C@@H]2CCN2C2CCOCC2)sn1 | 313 | –
CC(C)(C)c1nsc(NC(=O)[C@@H]2CCN2C2CCOCC2)n1 | 471 | –
O=C(Nc1nc(-c2ccc(F)c(F)c2)cs1)[C@@H]1CCN1C1CCOCC1 | 203 | –
O=C(Nc1nc2c(F)cccc2s1)[C@@H]1CCN1C1CCOCC1 | 153 | –
CC(C)(C)Cc1cc(NC(=O)[C@@H]2CCN2C2CCOCC2)on1 | 243 | –
CC(C)(C)c1cc(NC(=O)[C@@H]2CCN2C(=O)C2CCC(F)(F)CC2)no1 | – | 127
CCc1sc(NC(=O)[C@@H]2CCN2c2ncc(C(F)(F)F)cc2Cl)nc1-c1ccccc1 | 2.7 | –
CCc1sc(NC(=O)[C@@H]2CCN2CC2CCOCC2)nc1-c1ccccc1 | 4.1 | –
CCc1sc(NC(=O)[C@@H]2CCN2C2CCOCC2)nc1-c1ccccc1 | 116 | –
CCc1sc(NC(=O)[C@@H]2CCN2c2ccc(C(F)(F)F)cn2)nc1-c1ccccc1 | 128 | –
CC(C)(C)c1cc(NC(=O)[C@@H]2CCN2c2ccc(C(F)(F)F)cn2)on1 | 0.67 | –
CC(C)(C)c1cc(NC(=O)[C@@H]2CCN2c2ccc(Cl)cc2)no1 | 1.7 | –
CC(C)(C)c1cc(NC(=O)[C@@H]2CCN2c2ccc(Cl)cc2)on1 | 0.75 | –
O=C(Nc1cc(C(F)(F)F)no1)[C@@H]1CCN1c1ccc(Cl)cc1 | 43 | –
CC(C)N1CC[C@H]1C(=O)Nc1cc(C(C)(C)C)no1 | 26 | –

SMILES | EC50 (CB2 EC50 (nM)) [nM] | EC50 (read-out: CB2 EC50) [nM]
CC(C)(C)c1cc(NC(=O)[C@@H]2CCN2C2CCCC2)on1 | 6.6 | –
CC(C)(C)c1cc(NC(=O)[C@@H]2CCN2C2CCCCC2)on1 | 0.08 | –
CC(C)(C)c1cc(NC(=O)[C@@H]2CCN2Cc2ccc(F)c(F)c2)on1 | 14 | –
CC(C)(C)c1cc(NC(=O)[C@@H]2CCN2S(=O)(=O)c2ccc(S(C)(=O)=O)cc2)no1 | 197 | –
CCCS(=O)(=O)N1CC[C@H]1C(=O)Nc1cc(C(C)(C)C)on1 | 157 | –
CC(C)(C)c1cc(NC(=O)[C@@H]2CCN2S(=O)(=O)c2ccc(S(C)(=O)=O)cc2)on1 | 357 | –
COCC(C)(C)c1cc(NC(=O)[C@@H]2CCN2c2ccc(Cl)cc2)no1 | 12 | –
CC(C)(C)c1cc(NC(=O)[C@@H]2CC(=O)N2c2ccc(Cl)cc2)on1 | 17 | –
CC(C)(C)c1cc(NC(=O)[C@@H]2CC(=O)N2c2ccc(Cl)cc2)no1 | 50 | –
CC(C)(CO)c1cc(NC(=O)[C@@H]2CCN2c2ncc(C(F)(F)F)cc2Cl)on1 | 0.12 | –
CC(C)(CO)c1cc(NC(=O)[C@@H]2CCN2c2ccc(C(F)(F)F)cn2)on1 | 18 | –
CC(C)(CO)c1cc(NC(=O)[C@@H]2CCN2c2ccc(Cl)cc2)on1 | 18 | –
CC(C)(CO)c1cc(NC(=O)[C@@H]2CCN2c2ccc(F)cc2)on1 | 22 | –
COCC(C)(C)c1cc(NC(=O)[C@@H]2CCN2c2ccc(F)cc2)no1 | 7.7 | –
COCC(C)(C)c1cc(NC(=O)[C@@H]2CCN2c2ccc(F)cc2)on1 | 5.6 | –
COCC(C)(C)c1cc(NC(=O)[C@@H]2CCN2C2CCOCC2)on1 | 75 | –
CC(C)(C)c1cc(NC(=O)[C@@H]2CCN2c2ncc(C(F)(F)F)cc2Cl)no1 [drawing 125] | 0.02 | –
CC(C)(C)c1cc(NC(=O)[C@@H]2CCN2c2ncc(C(F)(F)F)cc2Cl)no1 [drawing 126] | 0.05 | –
CC(C)(C)c1cc(NC(=O)[C@@H]2CCN2C2CCOCC2)no1 [drawing 128] | 8.8 | –
CC(C)(C)c1cc(NC(=O)[C@@H]2CCN2C2CCOCC2)no1 [drawing 132] | 18 | –
